Legend:
Assay type in all cases: cell-based
[1] = tested on: voltage-gated Na+ channels in CAD cells
[2] = tested on: voltage-gated Na+ channels in CAD cells; assay: Rate of development of inhibition/slow inactivation of Na+ currents in CAD cells; details: 100 µM; vehicle 0.51 ± 0.08
[3] = tested on: voltage-gated Na+ channels in CAD cells; details: 100 µM
[4] = tested on: voltage-gated Na+ channels in CAD cells; assay: Frequency; details: 100 µM; 30 pulses at 10 Hz, holding −80 mV
[5] = tested on: voltage-gated Na+ channels in CAD cells; details: for fraction of channels in a slow-inactivated state (1 minus the normalized INa): at −50 mV
[6] = tested on: voltage-gated Na+ channels in CAD cells; remark: listed apart in the source
[7] = 30 µM, UV irradiation, then washed 5 min

| Compound | reduction of peak inward Na+ current ([1]; 100 µM, CAD cells held at −80 mV, versus 0.1% DMSO) [%] | fraction of current available at 8 s prepulse duration [2] | V1/2 of steady-state fast inactivation ([3]; DMSO control −67.5 ± 1.0 mV, not different (p > 0.05)) [mV] | peak current lower than control by the last pulse [4] | slow inactivation observed at potentials more depolarized than ([5]; 100 µM) [mV] | fraction of Na+ current available at −50 mV ([5]; 100 µM, 5 s conditioning prepulse) [fractional units] | maximal fraction of current unavailable by depolarization ([5]; 100 µM, 20 mV as printed, control 0.62 ± 0.03) | fraction of channels in a slow-inactivated state (1 minus the normalized INa) ([5]; 100 µM) | recovery of current amplitude at −10 mV after wash compared with pre-drug values ([6]; 100 µM, 10 min, 5-min wash) [%] | effect on slow inactivation following the 5-min wash ([6]; 100 µM, 10 min at 37 °C, then 5-min wash, −50 mV) | slope (k) of fast inactivation curve, shallower than DMSO-treated cells ([3]; p<0.05) | IC50 for slow inactivation, fold lower compared with (R)-1 ([5]; CAD cells, versus IC50 85 µM of (R)-1) [fold] | Na+ channels remaining in a slow-inactivated state [6, 7] | recovery of current amplitude at −10 mV compared with DMSO control or UV alone [6, 7] [%] | Na+ channels accumulated in the slow-inactivated state ([6]; 30 µM, photoactivated 365 nm 8 min then 312 nm 1 min) | Na+ channels in the slow-inactivated state ([6]; 30 µM, without light) [%] | changes in steady-state activation or fast inactivation ([6]; pre-drug, drug, UV and washout conditions, (R)-5 40 µM, (R)-6 40 µM, (R)-7 30 µM) | block of Na+ current [1] |
| --- | --- | --- | --- | --- | --- | --- | --- | --- | --- | --- | --- | --- | --- | --- | --- | --- | --- | --- |
| COC[C@@H](NC(C)=O)C(=O)NCc1ccccc1 [(R)-1, (R)-N-benzyl 2-acetamido-3-methoxypropionamide] | 40 | 0.31 ± 0.01 | −69.5 ± 1.3 | ~ 10% | > −80 | 0.35 ± 0.01 | 0.26 ± 0.01 | 0.65 ± 0.08 | 74 | completely reversed | – | – | – | – | – | – | – | – |
| COC[C@@H](NC(C)=O)C(=O)NCc1ccc(C2(C(F)(F)F)N=N2)cc1 [(R)-7] | – | – | – | – | – | – | – | 0.66 ± 0.05 | – | – | about 55% | 7.1 | about 10% | 87 | about 35% | 65 | no changes | – |
| NC1=N[C@H](O)[C@H]2[C@H]3O[C@]4(O)O[C@@H]([C@@H](O)[C@@]2(N1)[C@@H]4O)[C@]3(O)CO [tetrodotoxin] | – | – | – | – | – | – | – | – | – | – | – | – | – | – | – | – | – | almost all of the current was blocked |

— PMC3082957 (ACS chemical neuroscience, 2011)
